Article PMC6874683, “Pyrrothiogatain acts as an inhibitor of GATA family proteins and inhibits Th2 cell differentiation in vitro” (Scientific Reports, 2019)
“And” between values parts separate entries of the source, which are not always exact repeats. Equal entries are not always repeated.

Columns and labels:
GATA3-SOX4 interaction = molecular target: T1, GATA3-SOX4 interaction (Homo sapiens, UniProt P23771); test: AlphaScreen binding assay of GATA3 and SOX4; conditions: pyrrothiogatain 0 to 100 µM
T1 construct: we synthesized the recombinant full-length GATA3 protein with an N-terminal FLAG tag using the wheat cell-free system; made in house; host or cells: wheat cell-free protein synthesis system (WEPRO1240 kit), BirA added for biotinylation
Protocol: The GATA3 protein has been reported to directly interact with SOX4[22]. We next investigated whether pyrrothiogatain interrupted the interaction between GATA3 and SOX4. […] Interaction between biotin-labelled SOX4 and FLAG-GATA3 was analysed by the AlphaScreen system (Fig. 4B).
Figure 4 Pyrrothiogatain inhibits the GATA3–SOX4 interaction. (A) Immunoblot analysis of biotin fused recombinant SOX4 (Biotin-SOX4) synthesized by the wheat cell-free system. The whole translational mixture (W) and the supernatant (S) were analysed using an anti-biotin antibody. (B) A schematic diagram of the binding assay to detect the direct binding between GATA3 and SOX4. When FLAG-tagged GATA3 binds with biotin fused SOX4, AlphaScreen beads generate a luminescent signal. (C) The binding assay of GATA3 and SOX4. The luminescence signals were detected by AlphaScreen technology. FLAG-DHFR was used as a control. (D) The inhibition assay of the binding of GATA3 and SOX4 in the presence of various concentrations of pyrrothiogatain (0 to 100 µM). The binding activity was calculated from the AlphaScreen signal. (E) The binding of recombinant GATA3 with SOX4 in the presence of pyrrothiogatain (0 to 100 µM) was assessed by immunoprecipitation assay. […] In (C,D), all data are expressed as individual points of three independent experiments with error bars indicating standard deviation.

GATA2 = molecular target: T2, GATA2 (Homo sapiens, UniProt P23769); test: AlphaScreen DNA-binding assay, GATA2; conditions: pyrrothiogatain 0 to 200 µM
T2 construct: we tried to synthesize their full-length proteins using the cell-free system; made in house; host or cells: wheat cell-free protein synthesis system (WEPRO1240 kit)
T2 sequence (P23769 1-480): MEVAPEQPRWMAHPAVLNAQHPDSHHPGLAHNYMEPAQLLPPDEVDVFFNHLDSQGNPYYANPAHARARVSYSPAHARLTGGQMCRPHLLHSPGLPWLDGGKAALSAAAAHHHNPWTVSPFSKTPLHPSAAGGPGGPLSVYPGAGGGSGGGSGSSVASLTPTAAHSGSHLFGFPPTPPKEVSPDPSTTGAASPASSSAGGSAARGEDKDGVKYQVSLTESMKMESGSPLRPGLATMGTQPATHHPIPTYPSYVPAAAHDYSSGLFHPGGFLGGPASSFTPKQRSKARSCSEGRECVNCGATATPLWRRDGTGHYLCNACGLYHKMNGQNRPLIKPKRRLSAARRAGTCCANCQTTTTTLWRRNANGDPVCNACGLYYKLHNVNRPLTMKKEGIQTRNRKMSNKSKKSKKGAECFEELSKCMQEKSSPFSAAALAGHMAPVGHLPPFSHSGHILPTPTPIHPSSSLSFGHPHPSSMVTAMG
Protocol: (§1) For the protein-DNA binding assay on a 384-well AlphaPlate (Perkin Elmer), 10 μL of bait protein mixture containing 1 µL FLAG-tagged protein in AlphaScreen Buffer (100 mM Tris-HCl (pH 8.0), 150 mM NaCl, 0.1% Tween 20, and 1 mg/mL BSA) and 5 µL biotinylated oligonucleotide (0–10 µM final concentration) in AlphaScreen Buffer were dispended into the AlphaPlate. Then, the plate was incubated at 26 °C for 1 h. After incubation, 10 μL of the detection mixture containing 0.4 µg/mL Anti-DYKDDDDK antibody (1E6, Wako), 0.1 μL streptavidin-conjugated AlphaScreen donor beads, and 0.1 μL protein A-conjugated AlphaScreen acceptor beads in AlphaScreen Buffer was mixed and incubated at 26 °C for 1 h, and then, the AlphaScreen signal was detected using an EnVision device with the AlphaScreen signal detection program (PerkinElmer).
(§2) For the AlphaScreen-based chemical library screening, we used a diverse set of 9,600 synthesized chemicals established by the Drug Discovery Initiative (The University of Tokyo, Tokyo, Japan). All chemical compounds (10 mM) were dissolved in DMSO, and were pre-dispensed into a 384-well Alphaplate (250 nL/well). […] The AlphaScreen signal was detected using an EnVision device with the AlphaScreen signal detection program (PerkinElmer). […]

GATA3 expression = test: Intracellular staining of GATA3, CD4+ T cells under IL-2 conditions; assay type: cell-based, mouse; conditions: 30 µM, two days
Protocol: The in vitro differentiated CD4^+ T cells were stimulated using an immobilized anti-TCR-β mAb (3 µg/ml, H57–597, BioLegend) for 6 h in the presence of monensin (2 µM). The cells were fixed with 4% paraformaldehyde (Cat#163–20145, Wako) and permeabilized with permeabilization buffer (50 mM NaCl, 5 mM EDTA, 0.02% NaN3, and 0.5% Triton X-100). Then, the cells were stained using the following antibodies, anti-IL-4-PE (Cat#504103, BioLegend, 1:50), anti-IL-5-APC (Cat#504305, BioLegend, 1:50), anti-IL-13-PE (Cat#12–7133–41, eBiosience, 1:50), anti-IFN-γ-FITC (Cat#562019, BD Biosciences, 1:500), and anti-IL-2-APC (Cat#503809, BioLegend, 1:50). For the intracellular staining of Gata3, the Foxp3/Transcription Factor Staining Buffer Kit (cat#TNB-0607, TONBO) was used according to the manufacturer’s protocol. Flow cytometry was performed using a Gallios Flow Cytometer instrument (Beckman Coulter) and a FACS Caliber instrument (BD Biosciences) and the results were analysed using the FlowJo software program (Tree Star, Ashland, OR, USA).
(D) Intracellular staining of GATA3 in CD4+ T cells stimulated with immobilized anti-TCRβ mAb plus anti-CD28 mAb under IL-2 conditions in the presence or absence of pyrrothiogatain (30 µM) for two days.

GATA5 = molecular target: T3, GATA5 (Homo sapiens, UniProt Q9BWX5); test: AlphaScreen DNA-binding assay, GATA5; conditions: pyrrothiogatain 0 to 200 µM
T3 construct: we tried to synthesize their full-length proteins using the cell-free system; made in house; host or cells: wheat cell-free protein synthesis system (WEPRO1240 kit)
Protocol: as §1, §2

T3 sequence (Q9BWX5 whole entry, species assumed): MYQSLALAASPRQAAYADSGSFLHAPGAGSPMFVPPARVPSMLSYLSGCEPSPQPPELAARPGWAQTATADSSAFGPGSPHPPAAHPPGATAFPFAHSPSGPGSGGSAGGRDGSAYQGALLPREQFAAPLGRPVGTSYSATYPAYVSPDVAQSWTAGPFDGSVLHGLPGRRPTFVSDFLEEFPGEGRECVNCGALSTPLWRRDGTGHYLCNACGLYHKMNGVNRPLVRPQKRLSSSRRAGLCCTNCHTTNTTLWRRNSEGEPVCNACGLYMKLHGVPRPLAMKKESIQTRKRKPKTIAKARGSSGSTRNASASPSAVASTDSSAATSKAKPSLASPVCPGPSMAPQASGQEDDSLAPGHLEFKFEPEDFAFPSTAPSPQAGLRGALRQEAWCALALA
T1 sequence (P23771 whole entry): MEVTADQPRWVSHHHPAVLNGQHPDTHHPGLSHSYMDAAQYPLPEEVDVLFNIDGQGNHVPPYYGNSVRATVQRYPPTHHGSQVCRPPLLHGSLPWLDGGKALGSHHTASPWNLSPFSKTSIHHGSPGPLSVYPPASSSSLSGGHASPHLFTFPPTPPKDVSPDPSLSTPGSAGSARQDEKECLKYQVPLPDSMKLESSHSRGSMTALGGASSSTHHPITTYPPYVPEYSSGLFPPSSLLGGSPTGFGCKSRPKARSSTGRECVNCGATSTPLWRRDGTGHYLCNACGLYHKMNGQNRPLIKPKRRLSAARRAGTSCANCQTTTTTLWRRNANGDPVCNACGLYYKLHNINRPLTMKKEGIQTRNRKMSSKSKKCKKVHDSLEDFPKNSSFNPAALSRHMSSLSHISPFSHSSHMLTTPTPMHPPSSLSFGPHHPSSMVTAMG

IC50 (GATA3-SOX4 interaction): 95.2 µM
IC50 (GATA2): ~50 µM and 45 µM
IC50 (GATA5): ~50 µM and 49.5 µM
SMILES: Cc1ccc(C)n1-c1ccsc1C(=O)O [Pyrrothiogatain, 3-(2,5-dimethyl-1H-pyrrol-1-yl)thiophene-2-carboxylic acid]
Expression of GATA3, protein level (GATA3 expression): not influenced
